Data on one molecule can be found in paper PMC8268575 (International Journal of Molecular Sciences, 2021).

Each structure is given as a SMILES string. Entries after “also recorded” stand apart in the source; their conditions may differ.

The target of series [1] is T1, recombinant human PREP (Homo sapiens, UniProt P48147).
T1 sequence (P48147 1-710): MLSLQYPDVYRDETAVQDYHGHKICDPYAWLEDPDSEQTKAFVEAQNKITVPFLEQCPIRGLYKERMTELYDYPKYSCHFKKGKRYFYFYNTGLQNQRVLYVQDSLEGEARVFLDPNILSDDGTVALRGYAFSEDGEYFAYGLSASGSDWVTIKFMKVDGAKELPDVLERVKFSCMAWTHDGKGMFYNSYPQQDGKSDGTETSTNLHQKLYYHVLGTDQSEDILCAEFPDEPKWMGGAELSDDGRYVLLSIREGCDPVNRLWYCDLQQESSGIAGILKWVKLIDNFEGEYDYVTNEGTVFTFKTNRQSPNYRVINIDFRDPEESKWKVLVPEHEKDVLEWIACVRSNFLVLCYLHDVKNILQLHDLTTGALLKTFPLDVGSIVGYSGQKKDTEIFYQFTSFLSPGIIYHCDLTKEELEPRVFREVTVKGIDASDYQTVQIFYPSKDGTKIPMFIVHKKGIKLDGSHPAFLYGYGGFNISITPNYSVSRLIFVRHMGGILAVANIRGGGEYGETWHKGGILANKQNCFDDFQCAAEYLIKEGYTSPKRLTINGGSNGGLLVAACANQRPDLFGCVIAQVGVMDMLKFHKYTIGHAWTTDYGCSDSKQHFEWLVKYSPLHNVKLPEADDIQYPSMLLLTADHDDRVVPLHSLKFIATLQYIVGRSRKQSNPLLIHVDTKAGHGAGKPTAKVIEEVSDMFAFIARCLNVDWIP
Kind of series: Cleavage by recombinant PREP, MALDI-TOF/TOF. The conditions noted are these: pH 7.4 (0.1 M potassium phosphate, 1 mM EDTA, 5 mM DTT), 100 µM substrate, 0 s to 1 h. On the procedure: Supplementary Material File S3. Cleavage by recombinant PREP
Recombinant human PREP, expressed in BL21 (DE3) cells as previously described, was […]
(Laboratory for Medicinal Chemistry, University of Antwerp) or vehicle control at pH 7.4 (0.1 M potassium phosphate, 1 mM EDTA and 5 mM DTT). 100 μM substrate ((pyr)-apelin-13, (pyr)-apelin-13(1-12), Ang II or α-MSH 1-13) or vehicle control (PBS) was added. The reaction was stopped by acidification (pH<3) with 0.1% TFA after different time periods (0 s, 30 s, 1 min, 5 min, 15 min, 30 min or 1 h) and samples were stored at -80 °C.
A search for product peaks of the different peptides was conducted.
1. Van Elzen, R.; Schoenmakers, E.; Brandt, I.; Van Der Veken, P.; Lambeir, A.M.
Ligand-induced conformational changes in prolyl oligopeptidase: A kinetic approach.

Series [2] concerns the target T2, secreted PRCP in HUVEC supernatant (Homo sapiens, UniProt P42785).
T2 construct: endogenous in cells; host or cells: HUVEC and HAoEC (cell lysate and culture supernatant)
T2 sequence (P42785 46-496): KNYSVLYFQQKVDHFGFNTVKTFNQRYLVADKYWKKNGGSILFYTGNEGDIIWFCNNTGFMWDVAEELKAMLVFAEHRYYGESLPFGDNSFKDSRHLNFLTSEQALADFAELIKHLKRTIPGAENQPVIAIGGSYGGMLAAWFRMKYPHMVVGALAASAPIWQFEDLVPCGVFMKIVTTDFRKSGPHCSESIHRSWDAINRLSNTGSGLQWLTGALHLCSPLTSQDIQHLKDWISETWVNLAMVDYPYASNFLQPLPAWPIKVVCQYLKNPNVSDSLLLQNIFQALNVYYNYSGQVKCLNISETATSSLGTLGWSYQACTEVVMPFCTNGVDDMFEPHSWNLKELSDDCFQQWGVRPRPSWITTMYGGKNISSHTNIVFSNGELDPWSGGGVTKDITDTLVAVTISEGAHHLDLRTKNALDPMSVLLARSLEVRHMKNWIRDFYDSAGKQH
Kind of series: Incubation of (pyr)-apelin-13 with 24 h cellular supernatant of HUVEC. It counts as in vitro ADME. The note with it: 100 µM substrate. As to the method: Supplementary Material File S4. Incubation of (pyr)-apelin-13 with cellular supernatant HUVEC were seeded at a density of 10 000 cells per well in 96-well plates in 100 µL full medium. After 24 h, medium was replaced by assay medium and the cells were incubated for another 24 h at 37 °C in 5% CO2. After 24 h, cell supernatants were harvested and incubated with vehicle control (1% DMSO) or 1 µM compound 8o for 15 min at 37 °C. Then, 100 μM (pyr)-apelin-13 or vehicle control (PBS) was added. The reaction was stopped by acidification (pH<3) with 0.1% TFA after 1 h and the samples were stored at -80 °C until further processing.
The experiment was independently conducted 4 times. To detect the cleavage of (pyr)-apelin-13 (m/z 1533.8), the samples were analysed by MALDI-TOF/TOF.
However, comparing this experiment with the initial experiment where (pyr)-apelin-13 was added to the cells for 24 h (Figure 1 of main manuscript), much less (pyr)-apelin-13 was […]
terminal (pyr)-apelin-13 cleavage seen in the initial experiment.
Figure S4.1: Incubation of 24 h cellular supernatant with (pyr)-apelin-13 during 1 h. (Pyr)- […]
(1 picture or pasted object on this page, not shown here)

For series [3] the following is noted: plasma; cited from earlier work. From the text:
Although (pyr)-apelin-13 has increased stability and a longer plasma half-life in comparison with the non-pyroglutamated isoforms, it still has a short half-life of only minutes. Angiotensin-converting enzyme 2 (ACE2, EC 3.4.17.23) was always considered to be the only enzyme responsible for the hydrolysis of the C-terminal Phe of (pyr)-apelin-13 [28, 29, 30], until we identified PRCP as an apelin-cleaving enzyme in 2016, during the search for new PRCP-substrates based on amino acid sequence. Although many efforts were made to elucidate the importance of this C-terminal P ...

Series [4] has as its system HUVEC. Briefly: Substrate cleavage in HUVEC, supernatant analysed by MALDI-TOF/TOF. It is filed as in vitro ADME, human. The note with it: 100 µM substrate. On the procedure: (§1) The experiment was independently conducted 4 times. […] The supernatants were desalted and concentrated by use of C18 ZipTips (Merck-Millipore, Burlington, MA, USA) and eluted directly on the MALDI target in 70% acetonitrile/0.1% TFA. Subsequently, a MALDI matrix solution of 2.5 mg/mL α-cyano-4-hydroxycinnamic acid in 70% acetonitrile/0.1% TFA was applied on each spot, air-dried at room temperature, and the target was introduced into a 4800 plus MALDI TOF/TOF^TM Analyzer. Mass spectrometry (MS) spectra (mass range: 600–4000 Da) were acquired in positive reflector mode with a laser intensity of 5000. To confirm the identity of the most important peptides, MS/MS spectra were generated by use of collision induced dissociation with a laser intensity of 5500. Calibration was done during analysis using the 6-peptide mixture (AB Sciex, Framingham, MA, USA). Mass spectra were generated by use of the 4000 Series Explorer and analyzed by mMas. […] The ratio of the peak intensity of the cleaved substrate to the peak intensity of the intact substrate is an indication for the C-terminal cleavage of the substrates. To check for additional cleavage sites, a search for other product peaks was completed. Statistical analysis was performed using SPSS software version 27 (IBM). Two-way ANOVA analysis was conducted to examine the effect of the two independent variables (treatment duration and treatment option) on the ratio of the peak intensities.

The subject of series [5] is HAoEC. Kind of series: Substrate cleavage in HAoEC, supernatant analysed by MALDI-TOF/TOF. It counts as in vitro ADME, human. On the procedure: as §1

Take `CSCC[C@H](NC(=O)[C@@H]1CCCN1C(=O)CNC(=O)[C@H](CCCCN)NC(=O)[C@H](Cc1cnc[nH]1)NC(=O)[C@H](CO)NC(=O)[C@H](CC(C)C)NC(=O)[C@H](CCCNC(=N)N)NC(=O)[C@@H]1CCCN1C(=O)[C@H](CCCNC(=N)N)NC(=O)[C@@H]1CCC(=O)N1)C(=O)N1CCC[C@H]1C(=O)N[C@@H](Cc1ccccc1)C(=O)O` [(pyr)-apelin-13]: the “Cleavage by recombinant human PREP” value in series [1] is listed as “did not cleave; also recorded: could not observe”. The “C-terminal cleavage of (pyr)-apelin-13 in cell-free 24 h HUVEC supernatant” value in series [2] (1 h, 37 °C, MALDI-TOF/TOF, 4 independent experiments) is on record as “cleaved at its C-terminus after 1 h”. Also, in series [2] (1 h versus 24 h with cells), the “Extent of PRCP-mediated cleavage in cell-free HUVEC supernatant compared with the cellular experiment” value is “to a much lesser extent”. The half-life entry in series [3] is on record as “only minutes”. Further, the “C-terminal cleavage of (pyr)-apelin-13 to (pyr)-apelin-13(1–12), ratio of peak intensities in the supernatant” value is given as “significant after 24 h” in series [4] (HUVEC 10,000 cells/well, assay medium (5% full medium in HBSS), 37 °C, 0/2/4/8/24 h, all treatment groups, MALDI-TOF/TOF, n = 4) and “significant after 24 h” in series [5] (HAoEC 10,000 cells/well, 100 µM substrate, assay medium (5% full medium in HBSS), 37 °C, 0/2/4/8/24 h, all treatment groups, MALDI-TOF/TOF, n = 4). Also, the “Enzyme dependence of cleavage of (pyr)-apelin-13 to (pyr)-apelin-13(1–12)” value in series [4] (HUVEC pre-treated 15 min with 1 µM compound 8o (PRCP) and/or 1 µM DX600 (ACE2), 24 h, n = 4) is “PRCP-dependent”; in series [5] (HAoEC pre-treated 15 min with 1 µM compound 8o (PRCP) and/or 1 µM DX600 (ACE2), 100 µM substrate, 24 h, n = 4), “PRCP- and ACE2-dependent”. Further, the “Cleavage of (pyr)-apelin-13 to (pyr)-apelin-13(1-6)” value in series [4] (HUVEC, MALDI-TOF/TOF) is given as “could not be detected”; in series [5] (HAoEC, all treatment groups, 100 µM substrate, MALDI-TOF/TOF, data not shown), “significant from 8 h onwards”. The “Involvement of PRCP and ACE2 in cleavage of (pyr)-apelin-13 to (pyr)-apelin-13(1-6)” value in series [5] (HAoEC, 1 µM compound 8o and/or 1 µM DX600, data not shown) is recorded as “none of the studied enzymes were involved”. The “C-terminal cleavage of (pyr)-apelin-13 to (pyr)-apelin-13(1–12), earliest observable time” value in series [5] (control, PRCP-inhibited and ACE2-inhibited HAoEC, 100 µM substrate, 37 °C, MALDI-TOF/TOF, n = 4) is listed as “already observable after 8 h”.
